Data on 13 compounds can be found in US8946413B2 (Pfizer Inc., priority 2008, dated 2015).

Read-outs that look alike come from different tables or passages of the source.

The target in experiment [1] is T1, CCR2 (Homo sapiens, UniProt P41597).
T1 construct: (leukophoresis pack); host or cells: human peripheral blood mononuclear cells (PBMCs) from a normal human leukophoresis pack
Put plainly: hCCR2 (125-I hMCP-1) small molecule binding assay on human PBMCs. Conditions: for IC50: 125I-MCP-1, human PBMCs. In short, it runs like this: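 Ficoll-isolated human PBMCs pre-incubated 30 min or 1 h with compound at 0.333 μM final (0.67% DMSO), then incubated 30 min at room temperature with 150 pM 125I-hMCP-1 in RPMI/0.1% BSA/20 mM HEPES. Filter-bound radioactivity counted by gamma counter. 100% inhibition defined with 1 μM hMCP-1; IC50 plates run n=2.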

Experiment [2] has as its system streptozotocin (STZ)-induced diabetic rat model. Put plainly: Diabetic nephropathy rat model (STZ-induced), 24-hour urinary albumin excretion. Format: in vivo. Particulars: STZ diabetic male Wistar rats. The source says:
A rat model of diabetic nephropathy was used to determine the renal protective effect of pharmacological inhibition of CCR2. The streptozotocin (STZ)-induced diabetic rat model has been extensively used for studying the progression of diabetic renal disease. STZ injection causes immediate destruction of pancreatic β-cells, consequently hyperglycemia and progression of nephropathy similar to that seen in human diabetes mellitus. Diabetes was induced in male Wistar rats by single administration of STZ (45 mp/kg, iv). Three days after the induction of diabetes, fasting blood glucose levels were assessed. Animals with fasting blood glucose levels higher than 200 mg/dL were included in the study. All the treatments were then initiated. 1,5-anhydro-2,3-dideoxy-3-{[(1R,3S)-3-isopropyl-3-({(1S,4S)-5-[6-(trifluoromethyl)pyrimidin-4-yl]-2,5-diazabicyclo[2.2.1]hept-2-yl}carbonyl)cyclopentyl]amino}-4-O-methyl-D-erythro-pentitol was administered at doses of 0.03, 0.3, 1, and 10 mg/kg (mpk) (in the chow) for 11 weeks. 24-hour urine collections were obtained at 1, 4, 8, and 11 weeks after the treatment for assessing 24-hour urinary albumin excretion (UAE).

[3] abbreviates: 30 min preincubation, read-out: IC50 (nM) 30 min preinc.
Where [4] appears, read: 1 hr preincubation, read-out: IC50 (nM) 1 hr preinc.

T1 sequence (P41597 whole entry): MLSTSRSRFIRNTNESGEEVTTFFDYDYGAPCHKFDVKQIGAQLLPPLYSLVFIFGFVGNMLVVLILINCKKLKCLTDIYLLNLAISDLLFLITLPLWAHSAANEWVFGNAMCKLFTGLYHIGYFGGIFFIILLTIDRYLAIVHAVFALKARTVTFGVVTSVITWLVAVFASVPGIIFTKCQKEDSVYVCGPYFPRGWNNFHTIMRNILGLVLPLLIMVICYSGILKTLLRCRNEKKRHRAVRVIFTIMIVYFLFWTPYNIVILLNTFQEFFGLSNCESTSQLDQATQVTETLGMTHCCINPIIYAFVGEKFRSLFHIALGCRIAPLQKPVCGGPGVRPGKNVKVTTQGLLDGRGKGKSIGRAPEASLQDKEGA

Take `CO[C@@H]1COCC[C@@H]1N[C@@H]1CC[C@@](C(=O)N2C[C@@H]3C[C@H]2CN3c2cc(C(F)(F)F)ncn2)(C(C)C)C1` [Example 13, 1,5-anhydro-2,3-dideoxy-3-{[(1R,3S)-3-isopropyl-3-({(1S,4S)-5-[6-(trifluoromethyl)pyrimidin-4-yl]-2,5-diazabicyclo[2.2.1]hept-2-yl}carbonyl)cyclopentyl]amino}-4-O-methyl-D-erythro-pentitol]: the IC50 – broadly, the concentration that inhibits the measured activity by half – is 25.4 nM in experiment [1] (setting [3]) and 3.68 nM in experiment [1] (setting [4]). Besides, the “24-hour urinary albumin excretion (UAE)” value is reported as 2.17±1.31 mg/24 h in experiment [2] (0.03 mpk in the chow, week 11); 1.73±0.69 mg/24 h in experiment [2] (0.3 mpk in the chow, week 8); 1.96±0.85 mg/24 h in experiment [2] (0.3 mpk in the chow, week 11); 1.09±0.20 mg/24 h in experiment [2] (1 mpk in the chow, week 8); 1.66±0.65 mg/24 h in experiment [2] (1 mpk in the chow, week 11); 0.71±0.22 mg/24 h in experiment [2] (10 mpk in the chow, week 8). Besides, the “24-hour urinary albumin excretion (UAE)” value in experiment [2] (10 mpk in the chow, week 11) was found to be 1.02±0.32 mg/24 h. On to `CO[C@@H]1COCC[C@@H]1N[C@@H]1CC[C@@](C(=O)N2C[C@@H]3C[C@H]2CN3c2cncc(C(F)(F)F)n2)(C(C)(C)O)C1` [Example 59, 1,5-anhydro-2,3-dideoxy-3-{[3-(1-hydroxy-1-methylethyl)-3-({5-[6-(trifluoromethyl)pyrazin-2-yl]-2,5-diazabicyclo[2.2.1]hept-2-yl}carbonyl)cyclopentyl]amino}-4-O-methylpentitol], for which the 50% inhibitory concentration (IC50) in experiment [1] (setting [3]) came to 17.7 nM. `CO[C@@H]1COCC[C@@H]1N[C@@H]1CC[C@@](C(=O)N2C[C@@H]3C[C@H]2CN3c2cc(C(F)(F)F)ccn2)(C2CCOC2)C1` (stereo partly drawn) [Example 60, ((1S,3R)-3-((3S,4S)-3-methoxy-tetrahydro-2H-pyran-4-ylamino)-1-(tetrahydrofuran-3-yl)cyclopentyl)((1S,4S)-5-(4-(trifluoromethyl)pyridin-2-yl)-2,5-diaza-bicyclo[2.2.1]heptan-2-yl)methanone]: the IC50 in experiment [1] (setting [3]) was 2.4 nM. Same read-out and setting: the same measure for `CO[C@@H]1COCC[C@@H]1N[C@@H]1CC[C@@](C(=O)N2C[C@@H]3C[C@H]2CN3c2cc(C(F)(F)F)ccn2)(C2CCOC2)C1` (stereo partly drawn) [Example 61, ((1S,3R)-3-((3S,4S)-3-methoxy-tetrahydro-2H-pyran-4-ylamino)-1-(tetrahydrofuran-3-yl)cyclopentyl)((1S,4S)-5-(4-(trifluoromethyl)pyridin-2-yl)-2,5-diaza-bicyclo[2.2.1]heptan-2-yl)methanone]: 5.9 nM.

Regarding `CO[C@@H]1COCC[C@@H]1N[C@@H]1CC[C@@](C(=O)N2C[C@@H]3C[C@H]2CN3c2cc(C(F)(F)F)ccn2)(C(O)C(F)(F)F)C1` (stereo partly drawn) [Example 62, ((1S,3R)-3-((3S,4S)-3-methoxy-tetrahydro-2H-pyran-4-ylamino)-1-(2,2,2-trifluoro-1-hydroxyethyl)cyclopentyl)((1S,4S)-5-(4-(trifluoromethyl)pyridin-2-yl)-2,5-diaza-bicyclo[2.2.1]heptan-2-yl)methanone], the IC50 in experiment [1] (setting [3]) stood at 1.3 nM. As for `CO[C@@H]1COCC[C@@H]1N[C@@H]1CC[C@@](C(=O)N2C[C@@H]3C[C@H]2CN3c2cc(C(F)(F)F)ccn2)(C(O)C(F)(F)F)C1` (stereo partly drawn) [Example 63, ((1S,3R)-3-((3S,4S)-3-methoxy-tetrahydro-2H-pyran-4-ylamino)-1-(2,2,2-trifluoro-1-hydroxyethyl)cyclopentyl)((1S,4S)-5-(4-(trifluoromethyl)pyridin-2-yl)-2,5-diaza-bicyclo[2.2.1]heptan-2-yl)methanone], the IC50 in experiment [1] (setting [4]) came to 1.1 nM. On to `CO[C@@H]1COCC[C@@H]1N[C@@H]1CC[C@H](C(=O)N2C[C@@H]3C[C@H]2CN3c2cc(C(F)(F)F)ccn2)C1` [Example 65, ((1S,3R)-3-((3S,4S)-3-methoxy-tetrahydro-2H-pyran-4-ylamino)cyclopentyl)((1S,4S)-5-(4-(trifluoromethyl)pyridin-2-yl)-2,5-diaza-bicyclo[2.2.1]heptan-2-yl)methanone], for which the inhibition at 0.3 µM in experiment [1] (300 nM, 1 hr preincubation, human PBMCs, read-out: % @300 nM (printed in column IC50 1 hr preinc)) turned out to be 1.5%. Regarding `CO[C@@H]1COCC[C@@H]1N[C@@H]1CC[C@@](C(=O)N2C[C@@H]3C[C@H]2CN3c2cc(F)cc(C(F)(F)F)c2)(C2CCOC2)C1` (stereo partly drawn) [Example 66], the IC50 in experiment [1] (setting [3]) worked out at 1.7 nM. On to `CO[C@@H]1COCC[C@@H]1N[C@@H]1CC[C@@](C(=O)N2C[C@@H]3[C@H](F)[C@H]2CN3c2cc(C(F)(F)F)ccn2)(C(C)C)C1` [Example 67, ((1R,4R,7S)-7-(fluoro)-5-(4-(trifluoromethyl)pyridin-2-yl)-2,5-diaza-bicyclo[2.2.1]heptan-2-yl)((1S,3R)-1-isopropyl-3-((3S,4S)-3-methoxy-tetrahydro-2H-pyran-4-ylamino)cyclopentyl)methanone], for which, in experiment [1] (setting [3]), the IC50 was 3.4 nM. For `CO[C@@H]1COCC[C@@H]1N[C@@H]1CC[C@@](C(=O)N2C[C@@H]3[C@H](O)[C@H]2CN3c2cc(C(F)(F)F)ccn2)(C(C)C)C1` [Example 68, ((1R,4R,7S)-7-hydroxy-5-(4-(trifluoromethyl)pyridin-2-yl)-2,5-diaza-bicyclo[2.2.1]heptan-2-yl)((1S,3R)-1-isopropyl-3-((3S,4S)-3-methoxy-tetrahydro-2H-pyran-4-ylamino)cyclopentyl)methanone], the concentration for half-maximal inhibition (IC50) in experiment [1] (setting [3]) was 5.4 nM. `CO[C@@H]1COCC[C@@H]1N[C@@H]1CC[C@@](C(=O)N2C[C@@H]3C(F)[C@H]2CN3c2cc(C(F)(F)F)ccn2)(C(C)C)C1` (stereo partly drawn) [Example 69, ((1R,4R)-7-fluoro-5-(4-(trifluoromethyl)pyridin-2-yl)-2,5-diaza-bicyclo[2.2.1]heptan-2-yl)((1S,3R)-1-isopropyl-3-((3S,4S)-3-methoxy-tetrahydro-2H-pyran-4-ylamino)cyclopentyl)methanone]: the IC50 in experiment [1] (setting [3]) was found to be 4.3 nM.

For the compound `CO[C@@H]1COCC[C@@H]1N[C@@H]1CC[C@@](C(=O)N2C[C@@H]3C(O)[C@H]2CN3C(=O)OC(C)(C)C)(C(C)C)C1` (stereo partly drawn) [Example 70, (1R,4R,7S)-tert-butyl 7-hydroxy-5-((1S)-1-isopropyl-3-(3-methoxy-tetrahydro-2H-pryan-4-ylamino)cyclopentanecarbonyl)-2,5-diaza-bicyclo[2.2.1]heptane-2-carboxylate], the IC50 in experiment [1] (setting [3]) worked out at 8.7 nM. For `CO[C@@H]1COCC[C@@H]1N[C@@H]1CC[C@@](C(=O)N2C[C@@H]3C(F)[C@H]2CN3C(=O)OC(C)(C)C)(C(C)C)C1` (stereo partly drawn) [Example 71, tert-butyl 7-fluoro-5-((1S,3R)-1-isopropyl-3-((3S,4S)-3-methoxy-tetrahydro-2H-pyran-4-ylamino)cyclopentanecarbonyl)-2,5-diaza-bicyclo[2.2.1]heptane-2-carboxylate], in experiment [1] (setting [3]), the IC50 came out at 3.7 nM.
